Laboratory results as given in patent publication US8623832B2, “Peptide compositions that bind TLR-4” (The Board of Regents of the University of Oklahoma, priority 2011, dated 2014).
Where no end group is shown, it is not given here.

Experiments:
[1] = tested on: LPS-induced acute inflammation; test: Mouse model of LPS-inflammation (endotoxic shock-like symptoms, TNF-α); format: in vivo, Balb/c Mice; details: mice; for LPS-induced clinical symptoms (endotoxic shock-like): LPS 0.1 μg/g body weight i.p., SPA4 2.5 μg/g, SP-A 0.5 μg/g; for LPS-induced circulatory TNF-α amounts: LPS 0.1 μg/g body weight, serum, ELISA; for LPS-induced TNF-α levels in lung tissue homogenates: LPS 1 μg/g or 15 μg/g body weight, treated at 1 hour, sacrificed at 5 hours
Procedure: In Example 5, the efficacy of SPA4 peptide in inhibiting LPS-induced acute inflammation was investigated in a mouse model of LPS-inflammation. Balb/c Mice were challenged with E. coli 0111:B4 highly purified, low protein-derived LPS (0.1 or 1 or 15 μg/g body wt) via an intraperitoneal route, one hour prior to treatment with SPA4 peptide (2.5 μg/g body weight) or full-length purified SP-A (0.5 μg/g body weight) via an intraperitoneal route. The mice were monitored for endotoxic-shock like clinical symptoms (including, but not limited to, ruffled fur, eye exudates, diarrhea, prostration, and lack of reactivity), and these symptoms were scored on the basis of severity from 0 to 3, and average clinical symptom indices were calculated for each animal based on the symptom grades (Metkar et al., 2007). Endotoxic-shock like clinical symptoms were noted (at 5 or 7 hours), and mice were sacrificed at different time-intervals after LPS challenge. Major organs and blood specimens were collected. Secreted amounts of TNF-α cytokine were measured in serum and lung tissue homogenates by ELISA method.

[2] = molecular target: T1, recombinant TLR4-MD2 protein (Homo sapiens, UniProt O00206); test: Microwell-based binding to immobilized recombinant TLR4-MD2 protein; details: for binding to surface-bound TLR4-MD2 protein: 0.25 μg TLR4-MD2 per well, detected with SP-A-specific antibody
T1 construct: extracellular domain of human TLR4 protein (Glu 24-Lys 631 amino acids); 10x histidine tag (C); signal peptide from human CD33 (N); purchased R&D Systems, MN; host or cells: mouse myeloma cell line NS0
T1 sequence (O00206 24-631, one chain of several): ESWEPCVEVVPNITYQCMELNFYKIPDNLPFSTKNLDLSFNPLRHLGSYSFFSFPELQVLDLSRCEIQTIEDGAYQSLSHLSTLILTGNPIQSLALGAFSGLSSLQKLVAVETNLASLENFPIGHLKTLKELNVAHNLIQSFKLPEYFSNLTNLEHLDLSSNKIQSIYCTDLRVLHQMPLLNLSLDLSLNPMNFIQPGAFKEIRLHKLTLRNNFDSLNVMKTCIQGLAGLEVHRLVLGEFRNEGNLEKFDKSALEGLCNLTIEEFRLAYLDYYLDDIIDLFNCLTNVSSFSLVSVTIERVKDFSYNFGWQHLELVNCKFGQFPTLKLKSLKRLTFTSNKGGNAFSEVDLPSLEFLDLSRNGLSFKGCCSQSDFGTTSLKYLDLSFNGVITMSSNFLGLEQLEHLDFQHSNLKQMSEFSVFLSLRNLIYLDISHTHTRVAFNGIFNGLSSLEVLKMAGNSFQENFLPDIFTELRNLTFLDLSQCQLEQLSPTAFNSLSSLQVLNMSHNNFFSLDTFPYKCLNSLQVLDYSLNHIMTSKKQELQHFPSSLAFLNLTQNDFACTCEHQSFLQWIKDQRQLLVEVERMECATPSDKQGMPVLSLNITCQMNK
Description: (§1) Interaction between purified baboon lung SP-A, SP-A-peptides and TLR4-MD2 proteins using a microwell-based method: The binding between the purified baboon lung SP-A, SP-A-peptides and recombinant TLR4-MD2 and MD2 proteins was studied in vitro using a microwell-based method (Awasthi et al., 2004). The soluble, recombinant TLR4-MD2 protein (R&D Systems, MN) consisted of a mixture of recombinant human-TLR4 and MD2 proteins. The recombinant extracellular domain of human TLR4 protein (Glu 24-Lys 631 amino acids), was joined with a DNA sequence encoding the signal peptide from human CD33 and a 10× histidine tag at the C-terminus (Accession # O00206). For MD2 protein, a DNA sequence encoding the signal peptide from human CD33 was joined with the mature region of human MD-2 (mature region, Glu 17-Asn 160 amino acids) and a 10× histidine tag at the C-terminus (Accession # Q9Y6Y9). The chimeric proteins were expressed in a mouse myeloma cell line, NS0 (R&D Systems, MN). The proteins were obtained from the manufacturer in carrier-free condition and reconstituted in PBS containing 0.1% low-endotoxin BSA (MP Biomedicals, OH). MD2, an adaptor molecule for TLR4, is expressed by immune cells, and is known to bind TLR4 in a non-covalent manner (Jain et al., 2008). Thus, the binding of SP-A to the recombinant MD2 protein (R&D Systems, MN) was also studied.
(§2) For the binding assay, microwell ultra-high-protein binding Immunolon 4HBX strips (Thermo Scientific, MA) were coated with soluble recombinant-TLR4-MD2 protein or MD2 protein (R&D Systems, 250 ng per well, diluted in 0.1 M NaHCO3, pH 9.6) overnight at room temperature. The plates were washed three times, and non-specific sites were blocked for 2 h at room temperature using phosphate buffered saline containing 0.1% triton-X 100 and 3% nonfat milk (Buffer A). […] The immune-complex was detected using 3,3′,5,5′-tetramethylbenzidine (TMB) substrate system (Sigma-Aldrich, MO). The reaction was stopped with 2 N H2SO4 and read at 405 and/or 450 nm spectrophotometrically (Molecular Devices, CA).

recombinant MD2 protein = molecular target: T2, recombinant MD2 protein (Homo sapiens, UniProt Q9Y6Y9); test: Microwell-based binding to immobilized recombinant MD2 protein; details: 0.25 μg MD2 per well
T2 construct: human MD-2 (mature region, Glu 17-Asn 160 amino acids); 10x histidine tag (C); signal peptide from human CD33 (N); purchased R&D Systems, MN; host or cells: mouse myeloma cell line NS0
T2 sequence (Q9Y6Y9 17-160): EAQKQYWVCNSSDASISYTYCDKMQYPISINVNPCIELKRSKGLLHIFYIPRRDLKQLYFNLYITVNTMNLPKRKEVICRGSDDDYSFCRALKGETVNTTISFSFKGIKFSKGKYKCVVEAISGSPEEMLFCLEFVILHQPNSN
Description: as §1, with “The chimeric proteins were expressed in a mouse myeloma cell line, NS0 (R&D Systems, MN). The proteins were obtained from the manufacturer in carrier-free condition and reconstituted in PBS containing 0.1% low-endotoxin BSA (MP Biomedicals, OH). MD2, an adaptor molecule for TLR4, is expressed by immune cells, and is known to bind TLR4 in a non-covalent manner (Jain et al., 2008). Thus, the binding of SP-A to the recombinant MD2 protein (R&D Systems, MN) was also studied.” left out
as §2, with “temperature.” for “temperature. The plates were washed three times, and non-specific sites were blocked for 2 h at room temperature using phosphate buffered saline containing 0.1% triton-X 100 and 3% nonfat milk (Buffer A).”

| Substance | LPS-induced clinical symptoms (endotoxic shock-like) [1] | LPS-induced circulatory TNF-α amounts [1] | LPS-induced TNF-α levels in lung tissue homogenates [1] | binding to surface-bound TLR4-MD2 protein [2] | efficiency of binding to TLR4-MD2 protein compared with whole native SP-A protein ([2]; SPA4 2-20 μg versus SP-A 2-10 μg) | binding to surface-bound MD2 protein (recombinant MD2 protein) |
| --- | --- | --- | --- | --- | --- | --- |
| GDFRYSDGTPVNYTNWYRGE [SPA4, GDFRYSDGT PVNYTNWYRGE] | inhibit | reduced | reduced | binds to TLR4-MD2 protein | less efficient |  |
| SP-A: native surfactant protein-A purified from bronchioalveolar lavage fluid of a normal healthy adult baboon (MWLCPLALTLTLMAASGAACEVKDVCVGSPGIPGTPGSHGLPGRDGRDGVKGDPGPP; listed as Papio cynocephalus) | inhibit | reduced | low | showed binding |  | found to bind |
